Data on four compounds can be found in patent US20090156620A1, “[4-(6-FLUORO-7-METHYLAMINO-2,4-DIOXO-1,4-DIHYDRO-2H-QUINAZOLIN-3-YL)-PHENYL]-5-CHLORO-THIOPHEN-2-YL-SULFONYLUREA SALTS, FORMS AND METHODS RELATED THERETO” (Portola Pharmaceuticals, Inc., priority 2007, published 2009).

pIC50: −log10 of the molar value.

Data set [1] deals with T1, P2Y12 receptor on platelets (Homo sapiens, UniProt Q9H244).
T1 construct: endogenous in cells; host or cells: whole apyrase-washed human platelets (outdated from hospital blood banks, or fresh)
T1 sequence (Q9H244 whole entry): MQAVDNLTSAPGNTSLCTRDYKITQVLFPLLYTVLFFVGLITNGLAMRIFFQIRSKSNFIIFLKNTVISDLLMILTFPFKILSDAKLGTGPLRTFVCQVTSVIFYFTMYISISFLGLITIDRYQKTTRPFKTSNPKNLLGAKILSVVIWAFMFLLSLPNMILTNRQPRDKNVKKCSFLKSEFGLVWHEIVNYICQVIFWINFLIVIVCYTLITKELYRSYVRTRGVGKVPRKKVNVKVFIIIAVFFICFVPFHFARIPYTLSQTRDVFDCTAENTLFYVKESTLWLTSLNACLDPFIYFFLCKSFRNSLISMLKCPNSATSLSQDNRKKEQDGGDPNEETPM
As to the kind of experiment: platelet ADP receptor binding assay (ARB), inhibition of [3H]2-MeS-ADP binding to platelets. On the procedure:
1. The Ability of Candidate Molecules to Inhibit the Binding of [3H]2-MeS-ADP to the P2Y12 Receptor on Platelets was Determined Using a Radioligand Binding Assay
Utilizing this assay the potency of inhibition of such compounds with respect to [^3H]2-MeS-ADP binding to whole platelets is determined. Under the conditions described in II (3) below, the binding of [^3H]2-MeS-ADP is solely due to the interaction of this ligand with the P2Y12 receptor, in that all the specific binding measured in this assay is compatable with a P2Y12 antagonist (i.e., the specific binding is reduced to background levels by competition with an excess of P2Y12 antagonist, with no competition of binding when a P2Y1 antagonist is pre-incubated with the platelet preparation). […]
A platelet ADP receptor binding assay (ARB) using the tritiated potent agonist ligand [^3H]2-MeS-ADP (Jantzen, H. M. et al. (1999) Thromb. Hemost. 81:111-117) has been adapted to the 96-well microtiter format. […] Total binding is determined in the absence of test compounds. […] The platelet-bound radioactivity on the filtermats is determined in a scintillation counter (Microbeta 1450, Wallac Inc., Gaithersburg, Md.). Specific binding is determined by subtraction of non-specific binding from total binding, and specific binding in the presence of test compounds is expressed as % of specific binding in the absence of test compound dilutions. […]

For data set [2], the system named is ADP-induced human platelet aggregation. As to the kind of experiment: inhibition of ADP-mediated platelet aggregation in platelet-rich plasma (PRP assay). It counts as cell-based. On the procedure:
The effect of testing the compound according to the invention on ADP-induced human platelet aggregation was assessed in a 96-well microtiter assay (see generally the procedures in Jantzen, H. M. et al. (1999) Thromb. Hemost. 81:111′-117) or standard cuvette light transmittance aggregometry using either human platelet-rich plasma (PRP) or human washed platelets.
For preparation of human platelet-rich plasma for aggregation assays, human venous blood was collected from healthy, drug-free volunteers into 0.38% sodium citrate (0.013 M, pH 7.0 final). Platelet-rich plasma (PRP) is prepared by centrifugation of whole blood at 160×g for 20 minutes at room temperature. […]
For cuvette light transmittance aggregation assays, serial dilutions (1:3) of test compounds were prepared in 100% DMSO in a 96 well V-bottom plate (final DMSO concentration in the cuvette was 0.6%). […] The aggregation reaction is recorded for ˜5 mins, and maximum extent of aggregation is determined by the difference in extent of aggregation at baseline, compared to the maximum aggregation that occurs during the five minute period of the assay. Inhibition of aggregation was calculated as the maximum aggregation observed in the presence of inhibitor, compared to that in the absence of inhibitor. […]

Data set [3] is described as follows: accelerated stability test, chemical purity. It counts as physicochemical. As to conditions: one week, 40° C., 75% RH. On the procedure:
Purity analysis was performed on an Agilent HP1100 system equipped with a diode array detector and using ChemStation software v9.

Data set [4] is described as follows: gravimetric vapour sorption (GVS). It counts as physicochemical. On the procedure:
Sorption isotherms were obtained using a Hiden IGASorp moisture sorption analyser, controlled by CFRSorp software. The sample temperature was maintained at 25° C. by a Huber re-circulating water bath. The humidity was controlled by mixing streams of dry and wet nitrogen, with a total flow rate of 250 ml.min^−1. […] (typical room conditions). A moisture sorption isotherm was performed as outlined below (2 scans giving 1 complete cycle). […] The software uses a least squares minimisation procedure together with a model of the mass relaxation, to predict an asymptotic value. […] The minimum equilibration time was set to 1 hour and the maximum to 4 hours. The sample was recovered after completion of the isotherm and re-analysed by XRPD.

The nature of data set [5]: solid form stability of API dispersed in aqueous vehicle. The format is physicochemical. The note with it: dry ground API dispersed into aqueous 0.1M phosphate buffer. An excerpt: It was observed that after grinding the API with the diluent of Tox formulation, i.e., 0.5% methylcellulose and 0.1M phosphate sodium buffer at pH7.4, the drug particles became very dense and quickly precipitated during transfer and dosing. […] In addition, if only dry grinding is used to reduce the particle size of the API first and subsequently, the API is quickly dispersed into aqueous 0.1M phosphate buffer without applying significant mechanical stress, the solid form of the API can be maintained in form B for at least 6 hours.

The nature of data set [6]: polymorphism experiments, form B slurried in solvents. It counts as physicochemical. As to conditions: ca. 50 mg in ten volumes, ambient, two hours. An excerpt: The propensity of [4-(6-fluoro-7-methylamino-2,4-dioxo-1,4-dihydro-2H-quinazolin-3-yl)-phenyl]-5-chloro-thiophen-2-yl-sulfonylurea potassium salt form B to form polymorphs was studied. Form B (a hemi-hydrate) was slurried in a range of solvents (neat and mixtures). The solvents were chosen based on their pharmaceutical acceptability and also a range of functional groups and polarities such as alcohols, ethers and esters. To encourage hydrate formation, aqueous mixtures were also chosen. The solvents used are detailed in Table 7.
Approximately 50 mg of [4-(6-fluoro-7-methylamino-2,4-dioxo-1,4-dihydro-2H-quinazolin-3-yl)-phenyl]-5-chloro-thiophen-2-yl-sulfonylurea potassium salt, form B was suspended in ten volumes of the solvents detailed in table 7 and stirred at ambient for two hours. […] The suspensions were filtered under vacuum and analysed by XRPD. Most of the solids remained as form B, with a 1:1 acetone/water mixture leading to a subtle change in solid form. The 1:1 tetrahydrofuran/water mixture generated a mixture of that subtly different form and form B.
To all the form B samples a further aliquot of five volumes of appropriate solvent was added and the suspensions were slurried at 50° C. for 4 hours then cooled to ambient for 4 hours. This cycle was repeated for a total of 24 hours, after which time the suspensions were filtered under vacuum and analysed by XRPD.

The nature of data set [7]: solid form stability on storage at elevated temperature/humidity, by XRPD. It counts as physicochemical. As to conditions: 75% RH/40° C. for up to 6 months. On the procedure: To 20 mg of [4-(6-fluoro-7-methylamino-2,4-dioxo-1,4-dihydro-2H-quinazolin-3-yl)-phenyl]-5-chloro-thiophen-2-yl-sulfonylurea in 3 mL of the various solvents, was added 1.1 eq. of the base in 1 mL solvent. The mixture was shaken for 2 hours and the solutions were left to evaporate down to half their volume to try to precipitate out the salt. […] Oils/emulsions and opaque liquids were left to maturate at 50° C./ambient in an 8 hour cycles for several weeks. […] Solid samples (crystalline and amorphous) were then filtered, dried and then analyzed to judge their purity, crystallinity and stability. Solids were analysed by ^1H NMR to confirm salt formation and analyzed by ion chromatography and TGA to obtain the stoichiometry of the salt.

The pIC50 is −log10 of the IC50, conventionally taken in molar units. A high value points to a low IC50. For `CNc1cc2[nH]c(=O)n(-c3ccc(NC(=O)NS(=O)(=O)c4ccc(Cl)s4)cc3)c(=O)c2cc1Cl` [Example 3, [4-(6-chloro-7-methylamino-2,4-dioxo-1,4-dihydro-2H-quinazolin-3-yl)-phenyl]-5-chloro-thiophen-2-1-sulfonylurea], the pIC50 is less than 6.30 in data set [1] and less than 4.52 in data set [2].
On to `CNc1cc2[nH]c(=O)n(-c3ccc(NC(=O)NS(=O)(=O)c4ccc(Cl)s4)cc3)c(=O)c2cc1F.[K]` [Form A of the potassium salt, [4-(6-fluoro-7-methylamino-2,4-dioxo-1,4-dihydro-2H-quinazolin-3-yl)-phenyl]-5-chloro-thiophen-2-yl-sulfonylurea potassium salt 2.5 hydrate], for which, in data set [3], the “change in the chemical purity” value is listed as “No change”. Besides, the hygroscopicity entry in data set [4] is “less hygroscopic than the amorphous form of the sodium salt”. In data set [4] (25° C.), the “RH range in which the 2.5 hydrate is stable” value was 20-90 % RH; the dehydration result is “dehydrates between 20 and 0% RH”.
Turning to `CNc1cc2[nH]c(=O)n(-c3ccc(NC(=O)NS(=O)(=O)c4ccc(Cl)s4)cc3)c(=O)c2cc1F` [Example 2, [4-(6-fluoro-7-methylamino-2,4-dioxo-1,4-dihydro-2H-quinazolin-3-yl)-phenyl]-5-chloro-thiophen-2-yl-sulfonylurea], the negative-log IC50 (pIC50) was more than 7.30 in data set [1] and more than 5.00 in data set [2].
Regarding “[4-(6-fluoro-7-methylamino-2,4-dioxo-1,4-dihydro-2H-quinazolin-3-yl)-phenyl]-5-chloro-thiophen-2-yl-sulfonylurea potassium salt hemi hydrate [Form B of the potassium salt]”, the “time the solid form is maintained in form B” value in data set [5] is listed as “at least 6 hours”. For the same compound, the “solvents that dissolved the salt” value in data set [6] is 2-methoxyethanol was the only solvent that dissolved the potassium salt. In data set [4], the “XRPD after the GVS experiment” value is given as “no phase change” and the hygroscopicity entry is given as “non-hygroscopic”. Moreover, the “change in solid state” value in data set [7] is given as “no change in solid state”.
